Source: US10196363B2, “Dihydropyrimidin-2-one compounds and medical use thereof” (JAPAN TOBACCO INC., priority 2014, dated 2019)
Read-outs that look alike come from different tables or passages of the source.

Columns and labels:
human RORγ = biological target: T1, human RORγ (Homo sapiens, UniProt P51449); test: In vitro assay of inhibitory effect against RORγ transcriptional activity (GAL4-hRORγ LBD luciferase reporter gene assay in CHO cells); assay type: cell-based
T1 construct: human RORγ, from Ser253 to Lys518; expressed in transfected cells; host or cells: CHO cells (Chinese hamster ovary), transient co-transfection with pG5-Luc
T1 sequence (P51449 253-518): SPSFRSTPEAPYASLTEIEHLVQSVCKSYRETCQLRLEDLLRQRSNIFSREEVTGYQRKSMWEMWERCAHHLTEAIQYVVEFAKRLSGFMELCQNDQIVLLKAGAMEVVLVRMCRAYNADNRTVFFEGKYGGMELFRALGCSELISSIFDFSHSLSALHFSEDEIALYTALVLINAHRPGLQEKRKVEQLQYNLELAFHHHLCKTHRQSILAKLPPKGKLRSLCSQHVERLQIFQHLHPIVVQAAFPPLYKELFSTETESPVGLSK
Description: (§1) In Vitro Assay of Inhibitory Effect Against RORγ Transcriptional Activity
(§2) Inhibitory effect of a test article on transcriptional activity of RORγ was measured by means of the following reporter gene assay.
(§3) cDNA encoding human and mouse RORγ ligand binding domain (LBD) were obtained based on the sequences of human RORγ (Genebank registered number NM_005060.3) and mouse RORγ (Genebank registered number NM_011281.2) (LBD sequence: human RORγ, from Ser253 to Lys518; mouse RORγ, from Ile251 to Lys516).
(§4) The LBD cDNA of human or mouse RORγ was inserted into pFA-CMV vector (Strategene), which expresses GAL4-DNA binding domain fusion protein. The resulting plasmids are hereinafter referred to as GAL4-hRORγ plasmid and GAL4-mRORγ plasmid, respectively.
(§5) GAL4-hRORγ plasmid or GAL4-mRORγ plasmid was transiently co-transfected into Chinese hamster ovary cells (CHO cells) with pG5-Luc (Promega), a reporter plasmid expressing firefly luciferase depending on GAL4.
(§6) TransIT (Registered trademark) CHO transfection reagent (Mirus) was used to co-transfect GAL4-hRORγ plasmid or GAL4-mRORγ plasmid into CHO cells with pG5-Luc plasmid. One day before the assay, CHO cells were suspended in HAM F-12 Nutrient medium containing 10 v/v % fetal bovine serum and seeded at 6×10^6 cells per 175 cm^2 cell culture flask. Fifty four micro litters of TransIT (Registered trademark) CHO reagent was added into a 15 ml tube containing 1.16 mL of HAM F-12 Nutrient medium without fetal bovine serum, and mixed and incubated at room temperature for 10 min. Thirty six micro litters of plasmid solution containing the GAL4-hRORγ plasmid (400 ng), pG5-Luc plasmid (9000 ng) and pcDNA3 plasmid (8600 ng) were added into the tube and mixed gently. In case of mouse assay, a plasmid solution containing the GAL4-mRORγ plasmid (250 ng), pG5-Luc plasmid (9000 ng) and pcDNA3 plasmid (8750 ng) was added, instead. The mixture was incubated at room temperature for 10 min. Nine micro litters of CHO Mojo Reagent were then added into each tube and mixed gently. The mixture was incubated at room temperature for 10 min. The resultant transfection reagent was applied to the cell culture. After incubation at 37° C., 5% CO2 for 4 hours, the plasmid-transfected CHO cells were harvested with a trypsin treatment. The collected cells were resuspended in HAM F-12 Nutrient medium supplemented with 10 v/v % fetal bovine serum and plated into a 384-well-white plate at 8,000 cells/50 μL/well. The plate was incubated at room temperature for 1 hour and then further incubated at 37° C., 5% CO2 for 3 hours. The test articles were dissolved in dimethylsulfoxide (DMSO) to obtain a concentration of 10 mM. The resulting solution was diluted with a medium just before use and added to the cells in the plate to prepare 8 different concentrations of the test article. The final concentration of DMSO was 0.2 v/v %. After the addition of the test articles, the cells were incubated at 37° C., 5% CO2 for 2 days.
(§7) RORγ transcriptional activity was detected as the intracellular luciferase activity using SteadyLite HTS Reporter Gene Assay System (Perkin Elmer). StedyLite Reagent was diluted five-fold into a solution containing Extension reagent (10 mM Tricine, 0.2% w/v BSA, 0.02% v/v Tween-20) to obtain the luciferase substrate solution. After the measurement of the cell viability using Resazurin, the culture media in the plate were removed, and then the luciferase substrate solution was added into each well. After the incubation at room temperature for 10 minutes, luminescence of each well was measured by a microplate reader. The luciferase activity derived from the luminescence count in the vehicle-control well treated with 0.2% DMSO alone was defined as 100%, and the luciferase activity in the test article was calculated as a percentage (%-of-control) based on the value of the vehicle-control. EC50 value of test article was calculated by curve fitting with GraphPad Prism. […]

mouse RORγ = biological target: T2, mouse RORγ (Mus musculus, UniProt P51450); test: In vitro assay of inhibitory effect against RORγ transcriptional activity (GAL4-mRORγ LBD luciferase reporter gene assay in CHO cells); assay type: cell-based
T2 construct: mouse RORγ, from Ile251 to Lys516; expressed in transfected cells; host or cells: CHO cells (Chinese hamster ovary), transient co-transfection with pG5-Luc
T2 sequence (P51450 251-516): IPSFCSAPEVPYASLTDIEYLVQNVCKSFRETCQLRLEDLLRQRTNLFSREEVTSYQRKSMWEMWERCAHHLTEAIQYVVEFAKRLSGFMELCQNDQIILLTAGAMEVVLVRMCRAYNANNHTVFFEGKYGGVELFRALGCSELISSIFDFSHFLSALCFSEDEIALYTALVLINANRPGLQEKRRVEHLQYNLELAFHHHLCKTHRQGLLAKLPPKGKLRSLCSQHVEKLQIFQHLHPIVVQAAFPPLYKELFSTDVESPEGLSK
Description: as §1, §2, §3, §4, §5, §6, §7

[1] = GAL4-hRORγ LBD luciferase reporter, CHO cells, read-out: LUC EC50 hRORγ
[2] = GAL4-mRORγ LBD luciferase reporter, CHO cells, read-out: LUC EC50 mRORγ
[3] = GAL4-hRORγ LBD / pG5-Luc in CHO cells, 2 days incubation
[4] = GAL4-mRORγ LBD / pG5-Luc in CHO cells, 2 days incubation
[5] = value in parentheses beside the > EC50 bound, vehicle-control 0.2% DMSO alone = 100%

SMILES | EC50 (human RORγ; [1]) [nM] | EC50 (mouse RORγ; [2]) [nM] | EC50 (human RORγ; [3]) [nM] | EC50 (mouse RORγ; [4]) [nM] | also measured
CC(C)C1=CN(c2ccc(C(=O)O)cc2)C(=O)N[C@@]1(C)c1ccc(CCC(C)(C)C(F)(F)F)c(Cl)c1 [Example 196] | 9 | 17 |  |  | 
C[C@@]1(c2ccc(CC3CCCCC3)c(Cl)c2)NC(=O)N(CCC(=O)O)C=C1C1CC1 [Example 347] | 109 | 35 |  |  | 
COC[C@H]1C[C@H](N2C=C(C(C)(C)CCC(=O)O)[C@](C)(c3ccc(CCC(C)(C)C)c(Cl)c3)NC2=O)C1 [Example 198] | 12 | 26 |  |  | 
CCOC(=O)C1CNCC1N1C=C(C(C)C)[C@](C)(c2ccc(CCC(C)(C)C)c(Cl)c2)NC1=O (single isomer, unassigned) [Example 244] | 176 | 269 |  |  | 
CC(C)C1=CN(CCC(=O)O)C(=O)N[C@@]1(C)c1ccc(C2CCCC2)c(Cl)c1 [Example 156] |  |  | 520 | 166 | 
CC(C)C1=CN(CCC(=O)O)C(=O)N[C@@]1(C)c1ccc(CC2CCOCC2)c(Cl)c1 [Example 290] | 463 | 259 |  |  | 
CC(C)(C)CCc1ccc(C2(C)NC(=O)N(CCC(=O)O)C=C2C2(C)CC2)cc1Cl (single isomer, unassigned) [Example 171] |  |  | 12 | 14 | 
CC(C)C1=CN(CCC(C)(C)C(=O)O)C(=O)N[C@]1(C)c1ccc(CCC(C)(C)C)c(Cl)c1 [Example 54] |  |  | > 8000 | > 8000 | hRORγ luciferase activity, %-of-control (human RORγ; [5]): (92%); mRORγ luciferase activity, %-of-control (mouse RORγ; [5]): (81%)
CC(C)C1=CN(C23CC(C(=O)O)(C2)C3)C(=O)N[C@@]1(C)c1ccc(CCC(C)(C)C)c(C(F)(F)F)c1 [Example 322] | 21 | 19 |  |  | 
CC(C)C1=CN([C@H]2C[C@@H](C(=O)O)C2)C(=O)N[C@]1(C)c1ccc(CCC(C)(C)C)c(Cl)c1 [Example 45] |  |  | 7330 | 7510 | 
CC(C)(C)CCc1ccc([C@@]2(C)NC(=O)N(CCCC(=O)O)C=C2C2CC(F)(F)C2)cc1Cl [Example 145] |  |  | 2040 | 3970 | 
CC(C)CCOc1c(F)cc([C@]2(C)NC(=O)N(c3ccc(C(=O)O)cc3)C=C2C(C)C)cc1Cl [Example 192] | 17 | 11 |  |  | 
CC(C)C1=CN(CCC(=O)O)C(=O)N[C@@]1(C)c1ccc(CCC2CCC2)c(Cl)c1 [Example 122] |  |  | 28 | 15 | 
CC(C)C1=CN(CCC2(C(=O)O)CC2)C(=O)N[C@@]1(C)c1ccc(CCC(C)(C)C)c(Cl)c1 [Example 72] |  |  | 13 | 17 | 
CC(C)C1=CN([C@H]2C[C@@H](C(=O)O)C2)C(=O)NC1(C)c1ccc(OCC(C)(C)C)c(Cl)c1 (mixture of isomers) [Example 16] |  |  | 362 | 137 | 
CC(C)C1=CN([C@H]2C[C@H](C(=O)O)C2)C(=O)N[C@@]1(C)c1cc(Cl)c(CCC(C)(C)C)cc1F [Example 104] |  |  | 50 | 31 | 
COCC(C)C1=CN(c2ccc(C(=O)O)cc2)C(=O)N[C@@]1(C)c1ccc(CCC(C)(C)C)c(Cl)c1 (single isomer, unassigned) [Example 308] | 32 | 25 |  |  | 

SMILES | EC50 (human RORγ; [1]) [nM] | EC50 (mouse RORγ; [2]) [nM] | EC50 (human RORγ; [3]) [nM] | EC50 (mouse RORγ; [4]) [nM] | also measured
CC(C)CC1=CN(CCCC(=O)O)C(=O)N[C@@]1(C)c1ccc(CCC(C)(C)C)c(Cl)c1 [Example 38] |  |  | 11 | 15 | 
CC(C)C1=CN(C2CNCC2C(=O)O)C(=O)N[C@@]1(C)c1ccc(CCC(C)(C)C)c(Cl)c1 (single isomer, unassigned) [Example 238] | 715 | 666 |  |  | 
CC(C)(C)COc1ccc(C2NC(=O)NC=C2C(C)(C)CCC(=O)O)cc1Cl (racemic) [Example 7] |  |  | 152 | 110 | 
CC(C)(C)CCc1ccc([C@]2(C)NC(=O)N(c3ccc(C(=O)O)cc3)C=C2C2CC(F)(F)C2)cc1C(F)(F)F [Example 342] | 43 | 28 |  |  | 
CC(C)(C)CCc1ccc(C2(C)NC(=O)N(CCCC(=O)O)C=C2C(C)(C)C)cc1Cl (racemic) [Example 22] |  |  | 17 | 29 | 
CC(C)(C)CCc1ccc(C2(C)NC(=O)N([C@H]3C[C@H](C(=O)O)C3)C=C2C(C)(C)CCCO)cc1Cl (single isomer, unassigned) [Example 180] |  |  | 32 | 50 | 
CC(C)C1=CN(CCC(=O)O)C(=O)N[C@@]1(C)c1ccc(C2CCC(F)(F)CC2)c(Cl)c1 [Example 328] | 35 | 19 |  |  | 
CC(C)(C)CCc1ccc([C@]2(C)NC(=O)N(CCC(=O)O)C=C2c2ccccc2)cc1Cl [Example 265] | 37 | 71 |  |  | 
CC(C)C1=CN(CC(=O)O)C(=O)N[C@@]1(C)c1ccc(CCC(C)(C)C)c(Cl)c1 [Example 94] |  |  | 152 | 142 | 
CC(C)(C)COc1ccc(C2NC(=O)N(CCCC(=O)O)C=C2C(C)(C)C)cc1Cl (single isomer, unassigned) [Example 5, 4-{5-tert-butyl-4-[3-chloro-4-(2,2-dimethylpropoxy)-phenyl]-2-oxo-3,4-dihydro-2H-pyrimidin-1-yl}-butanoic Acid] |  |  | 34 | 24 | 
CC(C)C1=CN(C2CCCC(C(=O)O)C2)C(=O)N[C@@]1(C)c1ccc(CCC(C)(C)C)c(Cl)c1 (single isomer, unassigned) [Example 257] | 165 | 115 |  |  | 
CC(C)C1=CN(C23CCC(C(=O)O)(C2)C3)C(=O)N[C@@]1(C)c1ccc(CCC(C)(C)C)c(Cl)c1 [Example 272] | 17 | 36 |  |  | 
CC(C)C1=CN(c2cc(C(=O)O)nn2C)C(=O)N[C@@]1(C)c1ccc(CCC(C)(C)C)c(Cl)c1 [Example 297] | 44 | 61 |  |  | 
CC(C)C1=CN(CCC(=O)O)C(=O)N[C@@]1(C)c1ccc(C2=CCC(F)(F)CC2)c(Cl)c1 [Example 327] | 58 | 40 |  |  | 
COC1CC(C2=CN(c3ccc(C(=O)O)cc3)C(=O)N[C@@]2(C)c2ccc(CCC(C)(C)C)c(Cl)c2)C1 (single isomer, unassigned) [Example 276] | 28 | 47 |  |  | 
CC(C)(C)CCc1ccc([C@]2(C)NC(=O)N(c3ccc(C(=O)O)cc3)C=C2C2CC(F)(F)C2)cc1Cl [Example 252] | 20 | 28 |  |  | 
